Data from patent US20220281848A1, “PYRAZOLE-SUBSTITUTED PYRROLIDINONES AS HERBICIDES” (FMC Corporation, priority 2019, published 2022).

How the values were obtained:
Type in all cases: in vivo
[1] = system: velvetleaf (Abutilon theophrasti, ABUTH); test: Test A pre-emergence, velvetleaf; conditions: after 13 d
How it was run: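 Seeds were sown in standard soil in pots, kept one day in a glasshouse (24/16° C. day/night, 14 h light, 65% humidity), then sprayed with compound in acetone/water (50:50) containing 0.5% Tween 20 at 15.625, 62.5 or 250 g/ha. Plants grew on under the same conditions, watered twice daily, and damage was scored after 13 d (0 = none, 100 = total).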

[2] = system: barnyardgrass (Echinochloa crus-galli, ECHCG); test: Test A post-emergence, barnyardgrass; conditions: after 13 d
How it was run: (§1)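 Plants were grown 8 d in a glasshouse (24/16° C day/night, 14 h light, 65% humidity), then sprayed post-emergence at 15.625, 62.5 or 250 g/ha in acetone/water (50:50) with 0.5% Tween 20. Damage was scored visually after 13 d (0 = none, 100 = total).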

[3] = system: ivy-leaved morning glory (Ipomoea hederacea, IPOHE); test: Test A post-emergence, ivy-leaved morning glory; conditions: after 13 d
How it was run: as §1

maize = test: Test D pre-emergence, maize seed treated with a herbicide safener; conditions: ZEAMX, preemergent, 20 DAA
Procedure: (§2) A formulation containing 50 g/L of the test chemical was prepared by dissolving the active ingredient in a mixture of organic solvents and emulsifier, details of which are provided in the table. This formulation was then mixed with a small, variable amount of acetone to aid dissolution, before addition of a 0.2% v/v aqueous solution of an adjuvant, as the aqueous diluent, to form an aqueous spray solution which contains a predetermined concentration of the active ingredient.
(§3) This aqueous spray solution was then sprayed onto plants including maize and wheat that had been seed treated with a herbicide safener, after one day's cultivation (for pre-emergence) or after about 12 days' cultivation (for post-emergence). The plants were grown from seeds sown in standard soil, placed in a glasshouse under controlled conditions (at 24/18° C. or 20/16° C., day/night; 16 h light; 65% humidity). After spray application the plants were then grown in a glasshouse under the same conditions and watered twice daily. After 15 d for post-emergence and 20 DAA for pre-emergence the test was evaluated (100=total damage to plant; 0=no damage to plant).

wheat = test: Test D pre-emergence, wheat seed treated with a herbicide safener; conditions: 100=total damage, 0=no damage
Procedure: as §2, §3

CCn1nc([C@H]2CN(C)C(=O)[C@@H]2C(=O)Nc2cccc(F)c2F)c2cc(F)ccc21 [Compound 8]
damage to plant (100=total damage; 0=no damage) ABUTH ([1]; Pre-Emergence at 15.625 g/ha): 0
damage to plant (100=total damage; 0=no damage) ABUTH ([1]; Pre-Emergence at 62.5 g/ha): 0
damage to plant (100=total damage; 0=no damage) ABUTH ([1]; Pre-Emergence at 250 g/ha): 0
damage to plant (100=total damage; 0=no damage) ECHCG ([2]; Post-Emergence at 15.625 g/ha): 60
damage to plant (100=total damage; 0=no damage) ECHCG ([2]; Post-Emergence at 62.5 g/ha): 70
damage to plant (100=total damage; 0=no damage) ECHCG ([2]; Post-Emergence at 250 g/ha): 80
damage to plant (100=total damage; 0=no damage) IPOHE ([3]; Post-Emergence at 15.625 g/ha): 20
damage to plant (100=total damage; 0=no damage) IPOHE ([3]; Post-Emergence at 62.5 g/ha): 0
damage to plant (100=total damage; 0=no damage) IPOHE ([3]; Post-Emergence at 250 g/ha): 30
damage to plant (100=total damage to plant; 0=no damage to plant), ZEAMX (maize; rate 15): 0
damage to plant (100=total damage to plant; 0=no damage to plant), ZEAMX (maize; rate 30): 0
damage to plant (100=total damage to plant; 0=no damage to plant), ZEAMX (maize; rate 60): 0
damage to plant (100=total damage to plant; 0=no damage to plant), ZEAMX (maize; rate 130): 0
damage to plant (100=total damage to plant; 0=no damage to plant), ZEAMX (maize; rate 250): 0
damage to plant (100=total damage to plant; 0=no damage to plant), ZEAMX (maize; rate 500): 10
damage to plant, TRZAW (wheat; rate 15, 20 DAA): 0
damage to plant, TRZAW (wheat; rate 30, 20 DAA): 0
damage to plant, TRZAW (wheat; rate 60, 20 DAA): 0
damage to plant, TRZAW (wheat; rate 130, 20 DAA): 0
damage to plant, TRZAW (wheat; rate 250, 20 DAA): 0
damage to plant, TRZAW (wheat; rate 500, 20 DAA): 0

CCn1nc([C@@H]2CN(C)C(=O)[C@H]2C(=O)Nc2cccc(F)c2F)c2cccc(F)c21 [Compound 14]
damage to plant (100=total damage; 0=no damage) ABUTH ([1]; Pre-Emergence at 15.625 g/ha): 0
damage to plant (100=total damage; 0=no damage) ABUTH ([1]; Pre-Emergence at 62.5 g/ha): 0
damage to plant (100=total damage; 0=no damage) ABUTH ([1]; Pre-Emergence at 250 g/ha): 0
damage to plant (100=total damage; 0=no damage) ECHCG ([2]; Post-Emergence at 15.625 g/ha): 80
damage to plant (100=total damage; 0=no damage) ECHCG ([2]; Post-Emergence at 62.5 g/ha): 80
damage to plant (100=total damage; 0=no damage) ECHCG ([2]; Post-Emergence at 250 g/ha): 80
damage to plant (100=total damage; 0=no damage) IPOHE ([3]; Post-Emergence at 15.625 g/ha): 10
damage to plant (100=total damage; 0=no damage) IPOHE ([3]; Post-Emergence at 62.5 g/ha): 30
damage to plant (100=total damage; 0=no damage) IPOHE ([3]; Post-Emergence at 250 g/ha): 50
damage to plant (100=total damage to plant; 0=no damage to plant), ZEAMX (maize; rate 15): 0
damage to plant (100=total damage to plant; 0=no damage to plant), ZEAMX (maize; rate 30): 0
damage to plant (100=total damage to plant; 0=no damage to plant), ZEAMX (maize; rate 60): 0
damage to plant (100=total damage to plant; 0=no damage to plant), ZEAMX (maize; rate 130): 10
damage to plant (100=total damage to plant; 0=no damage to plant), ZEAMX (maize; rate 250): 20
damage to plant (100=total damage to plant; 0=no damage to plant), ZEAMX (maize; rate 500): 50
damage to plant, TRZAW (wheat; rate 15, 20 DAA): 0
damage to plant, TRZAW (wheat; rate 30, 20 DAA): 0
damage to plant, TRZAW (wheat; rate 60, 20 DAA): 0
damage to plant, TRZAW (wheat; rate 130, 20 DAA): 0
damage to plant, TRZAW (wheat; rate 250, 20 DAA): 60
damage to plant, TRZAW (wheat; rate 500, 20 DAA): 90
